# According to patent US20140190225A1, “ALTERING ANIMAL WASTE COMPOSITION” (AgResearch Limited, priority 2004, published 2014):
# Tests used:
# [1] = tested on: nitrification of urine/urea-N in soil; test: Soil incubation with urine from abomasally infused sheep: nitrification; settings: urine from sheep with abomasal infusion, DCD 15 g/day or 4 MP 1 g/day; soil incubated at 20° C.
# Method: (§1) This was determined by firstly measuring the urea concentration in urine samples and adjusting the urine volume (or in a few samples with low concentrations, urea was added) so that the same rate of urea-N was added to soil (100 g) in plastic bags. The soil was a Horotiu silt loam derived from volcanic ash taken from a pastoral site which had been ungrazed for over 6 months so that no residual animal urine was present.
# (§2) The urine-treated soil samples were incubated at 20° C. and sub-samples were removed at regular intervals over time for analysis of ammonium and nitrate in 2M KCl extracts using standard methods. The level of inhibition of nitrification was evident from less nitrate formation (FIG. 4B; P<0.001 at all incubation times) and higher ammonium levels (FIG. 4A; P<0.001 at all incubation times). Inhibition of nitrification was higher for DCD than for 4 MP (P<0.01), with an average reduction in nitrate production relative to the control of 96 and 51%, respectively (FIG. 4C). This difference may have been influenced by the rate of inhibitor used.
# nitrate leaching = test: Lysimeter study: nitrate leaching; settings: inhibitor added to cow urine, 1.5 g DCD/m^2 or 0.1 g 4 MP/m^2; 104 days
# Description: (§3) Undisturbed soil lysimeters (30 cm diameter×50 cm depth) were collected from a pastoral site near Lake Taupo which had been under a cutting regime with no grazing animals for over 18 months. The soil was a Taupo sandy loam (yellow brown pumice or allophanic soil). A gap (c. 1 cm) between the side of the soil cores and the PVC lysimeter housing was filled with Vaseline to stop possible edge-flow of water or urine. The lysimeters were transferred to a lysimeter facility (near Hamilton, New Zealand) where they were buried in soil so that the soil surface in the lysimeter was at ground level. However, the lysimeter casing extended about 4 cm above the soil surface to stop any lateral surface loss.
# There were five replicate lysimeters with the following treatments included: a control, urine, urine+DCD, and urine+4 MP. Urine was collected from Jersey dairy cows, stored at 4° C. and applied to the lysimeters within 4 days. The urine solution was applied at 10 L/m^2 giving the equivalent of 800 kg N/ha (similar to that for a cow urine patch). […]
# Nitrate leaching from lysimeters was measured by collection of leachate draining from the base of each lysimeter. This drainage water was collected at regular intervals and analysed for nitrate concentration. […]
# nitrous oxide emissions = test: Lysimeter study: nitrous oxide emission
# Description: as §3
# There were five replicate lysimeters with the following treatments included: a control, urine, urine+DCD, and urine+4 MP. Urine was collected from Jersey dairy cows, stored at 4° C. and applied to the lysimeters within 4 days. The urine solution was applied at 10 L/m^2 giving the equivalent of 800 kg N/ha (similar to that for a cow urine patch). For the DCD and 4 MP treatments, the inhibitor compounds were dissolved in the urine prior to application to represent urine excreted from inhibitor-administered animals. Inputs in these treatments were equivalent to 1.5 g DCD/m^2 and 0.1 g 4 MP/m^2.
# Lysimeters were left to stabilise for several weeks after installation in the facility. Treatments were applied in May 2004. Pasture on the lysimeters was trimmed prior to treatment application and was regularly cut at heights and intervals similar to that under dairy cow grazing.
# Nitrous oxide (N2O) emission from the main lysimeters was measured using a standard closed chamber method. Chambers were placed on the lysimeters at regular intervals during the study for periods of one hour at around midday. Gas samples were collected at 0, 30 and 60 minutes from the headspace of the chambers for N2O analysis by gas chromatography. […] Cumulative N2O emissions over the measurement period averaged 1.2 and 0.5 kg N/ha for the urine and urine+DCD treatments, giving a 57% reduction from DCD.
# [2] = Tolerability of abomasal infusion in sheep; format: in vivo; settings: DCD 15 g/day, 4 MP 1 g/day, Agrotain 80 g/day
# Description: (§4) Sheep were then transferred indoors to metabolism crates.
# [3] = tested on: conversion of nitrogen containing compounds; settings: cited from earlier work
# [4] = tested on: nitrification inhibition in soil; test: Laboratory soil incubation with urine from DCD-treated cows
# Method: A laboratory incubation experiment was set up to confirm that the DCD contained in urine from DCD-treated cows retained its nitrification inhibition properties after application to soil. Urine from DCD-treated cows was compared to urine from non-treated cows spike with varying rates of DCD.
# [5] = Excretion efficiency of DCD in non-lactating dairy cows (metabolism stall study); format: in vivo
# Method: The efficiency of excretion of DCD in urine relative to DCD administered to animals was determined in a metabolism stall study involving five non-lactating dairy cows. The study was conducted on the DairyNZ Lye Farm, near Hamilton, New Zealand.
# Each cow was fed a diet of pasture silage.
# The five cows were administered DCD via addition to the pasture silage feed at a dosage rate was 30 g/animal/day.
# Animal waste collectors were fitted to animals and configured to collect urine and dung separately. The animal waste was analysed for DCD concentration using known analysis techniques.
# [6] = DCD in urine of dairy heifers drenched daily; format: in vivo; settings: daily drench
# Description: In addition, in a separate study, dairy heifers were drenched daily with a DCD solution.
# [7] = Excretion efficiency of DCD in sheep; format: in vivo
# [8] = DCD in urine of sheep, abomasal infusion (HPLC); format: in vivo
# Description: as §4
# Infusion of treatments continued for 4 days, after which there was an 11 day non-treatment clearance/rest period before repeating this phase. Sheep allocation to treatments changed over each period in a statistical cross-over design (defined by statisticians) so that 11 sheep had been subjected to each of 3 treatments (control, DCD and 4 MP), and so that within- and between-sheep variability could be evaluated.
# Presence of DCD in urine samples was determined using high-performance liquid chromotography. […] There was some variability between sheep in DCD concentrations in urine, but this reflected differences in urination volumes (FIG. 3) so that there was much less difference in the amount of DCD excreted per urination. Concentrations of DCD in urine declined to negligible levels within 7 days after ceasing infusion (FIG. 2).
# [9] = DCD in urine of sheep, ruminal infusion (HPLC); format: in vivo
# Method: (§5) The 12 sheep were randomly allocated to one of 2 treatments; water infusion (Control) or DCD at 15 g/day (DCD group). Experimental methodology was the same as for the abomasal infusion study in that there was a 4 day period of continuous infusion followed by an 11 day non-treatment clearance/rest period.
# Presence of DCD in urine samples was determined using high-performance liquid chromotography. […] However, concentrations of DCD in urine were lower at day 1 of infusion than days 2-4, as expected because of time for rumen processing. Levels declined after ceasing infusion and were negligible within 7 days (FIG. 5).
# [10] = Freezing of urine: presence and activity of inhibitors; format: physicochemical; settings: urine frozen at −20° C.
# Description: During each infusion period the sheep were housed in metabolism crates to allow daily collection of urine and faeces samples. Single urination event samples were also collected from each sheep every day and were frozen for subsequent analysis of inhibitor content and for inhibitory activity in soil.
# [11] = tested on: nitrification of urine/urea-N in soil; test: Soil incubation with urine from ruminally infused sheep: nitrification; settings: urine from sheep with ruminal infusion of DCD 15 g/day
# Method: as §1, §2, §5
# [12] = cows, 30 g/animal/day in feed, at equilibrium
smiles,measurement,setting,value
"Cc1cn[nH]c1 [4 MP, 4 methylpyrazole]",average reduction in nitrate production relative to the control,[1],51%
same,reduction in cumulative nitrate leaching versus urine treatment,nitrate leaching,71%
same,effect on nitrous oxide emissions,"nitrous oxide emissions; inhibitor added to urine, lysimeters",reducing
same,"effect of infusion on sheep (live-weight changes, body condition, general bodily function, feed intake)",[2],no adverse effect
"N#CN=C(N)N [DCD, dicyandiamide]",effectiveness at a rate of approximately 5 kg/ha,[3]; DCD rate on land approximately 5 kg/ha,relatively ineffective
same,improvement at rates in excess of 10 kg/ha compared to 10 kg/ha,"[3]; application to land, most soils, rainfall below about 1500 mm/year",negligible improvements
same,"DCD in urine from DCD-treated cows, measured rate equivalent",[4]; FIG. 11 legend,51 kg DCD/ha
same,nitrification inhibition in soil of DCD in urine from treated cows versus urine spiked with an equivalent level of DCD,[4]; laboratory incubation,same level of nitrification inhibition
same,average reduction in nitrate production relative to the control,[1],96%
same,reduction in cumulative nitrate leaching versus urine treatment,nitrate leaching,56%
same,reduction in cumulative N2O emissions,nitrous oxide emissions; urine+DCD versus urine,57%
same,cumulative N2O emissions over the measurement period,"nitrous oxide emissions; urine+DCD, 1.5 g DCD/m^2, urine alone 1.2",0.5 kg N/ha
same,efficiency of excretion in urine,[5]; cattle such as beef or dairy,80-81%
same,DCD administered recovered in dung,[5]; [12],10%
same,DCD administered recovered in urine,[5]; [12],81%
same,"effect of infusion on sheep (live-weight changes, body condition, general bodily function, feed intake)",[2],no adverse effect
same,DCD concentration in urine over a 90 day treatment period,[6],remained relatively constant
same,efficiency of transfer to urine,[7],approximately 86%
same,DCD concentration in urine during the infusion period,"[8]; DCD 15 g/day abomasal infusion, versus control, P<0.001",highly significant increase
same,time for DCD in urine to decline to negligible levels after ceasing infusion,[8]; abomasal infusion 15 g/day,≤ 7 days
same,DCD excretion in urine over the infusion period,"[9]; DCD 15 g/day ruminal infusion, 4 days",high levels of DCD were absorbed and excreted in urine in an unaltered form
same,time for DCD in urine to become negligible after ceasing infusion,[9]; ruminal infusion 15 g/day,≤ 7 days
same,effect of freezing urine on presence or activity,[10],no effect
same,average reduction in nitrate production,[11],81%
